Patent US7378443B2, “Fatty acid analogues for the treatment of cancer” (Thia Medica, AS, priority 2000, dated 2008)
Entries after “also recorded” stand apart in the source; their conditions may differ.

Experiments:
[1] = test system: Escherichia coli; assay: tests for mutagenic activity in bacterial strains; assay type: cell-based; details: 3-1000 mg/plate (TTA), 2-5000 mg/plate (TSA)
Description: (§1) Covance Laboratories Limited, England, has performed tests for mutagenic activity. […] Furthermore, TTA was not mutagenic when tested in mouse lymphoma cells […] L5178Y.
(§2) The concentration of the compounds tested in S. typhimurium and E. coli were 3-1000 mg/plate (TTA) 2-5000 mg/plate (TSA). In mouse lymphoma cells, L5178Y, the concentration was 2,5-50 mg/ml.

[2] = test system: Salmonella typhimurium; assay: tests for mutagenic activity in bacterial strains; assay type: cell-based; details: 3-1000 mg/plate (TTA), 2-5000 mg/plate (TSA)
Description: as §1, §2

[3] = test system: Chinese hamster ovary cells; assay: chromosomal aberrations in cultured Chinese hamster ovary cells; assay type: cell-based; details: doses tested 12-140 mg/ml
[4] = 28 days toxicity study in dogs (GLP); assay type: in vivo
Description: A 28 days toxicity study in dogs according to GLP guidelines has been performed by Corning Hazleton (Europe), England. […] Some lipid related parameters were lowered in the animals given high dosages. This is consistent with the pharmacological activity of TTA.

[5] = test system: mouse lymphoma cells, L5178Y; assay: mutagenicity test in mouse lymphoma cells; assay type: cell-based; details: 2,5-50 mg/ml
Description: as §1, §2

[6] = test system: D-54MG cells; assay: cell migration out from attached spheroids; assay type: cell-based, human; details: D-54MG spheroids, 100 μM, 3 days of culture, DMEM; data not shown
Description: (§3) To compare the effect of the different fatty acid analogues on tumour spheroid growth, both D-54Mg and GaMg spheroids were transferred individually into 16 mm 24-well dishes base coated with 0.5 ml 0.75% DMEM-agar. D-54Mg and GaMg are human cell lines. The D-54Mg cell line was derived from a mixed anaplastic glioma and was kindly supplied by Dr. Darell D. Bigner, Duke University, Durham, N.C. The GaMg cell line was established in our laboratory and has been described in detail elsewhere (Bjerkvik et al.: Anticancer research 1998: vol 8, p 797-803). The spheroids were divided into 5 groups with 4 spheroids in each group. Four groups were treated with the different fatty acid analogues at a final fatty acid concentration of either 100 or 250 μM. […] The volume of the overlay suspension was 1.0 ml. The size of the spheroids were determined every second day be measuring two orthogonal diameters using an inverted phase contrast microscope with a calibrated reticle in the eye-piece. This was done during a 14-day period.
(§4) The effect of the fatty acid analogues on cell migration was studied by measuring the ability of cells to migrate out from spheroids that had attached to a plastic surface. […] The size of the outgrowth area was then determined by using a Kontron morphometry system (Kontron, Eching, Germany). […]

[7] = test system: GaMg cells; assay: cell migration out from attached spheroids; assay type: cell-based, human; details: 100 μM, 3 days of culture, DMEM, data not shown
Description: as §3, §4

[8] = test system: BT4Cn tumours; assay: survival of rats with intracranially implanted BT4Cn tumours; assay type: in vivo
Description: Mail Norwegian brown rats, BD IX, were used as described in example 5. The TTA was administered by oro-gastric intubation.
The tumour was implanted by stereotactical transplantation. The rats were anaesthetised with 0.4 ml Equithesin/100 g body weight. A skin incision was made, blood was removed by H2O2 and the scull was trephined using a dental drill.
The burr hole was localized 3.3 mm posterior to the coronal suture and 2.5 mm lateral to the sagittal suture.
Cells were harvested and counted as described above (Section 5.3), and then diluted in DPBS to a final concentration on 20.000 cells/μl. 2 μl cell suspension was injected with a Hamilton syringe with a cone-tipped 0.7 mm needle at a depth of 2.8 mm. The skin was closed with steel staples, and the animals were returned to their cages.

In the case of CCCCCCCCCCCCCC[Se]CC(=O)O [TSA, tetradecylselenioacetic acid], the induction of mutations [1] is reported as “did not induce mutations; also recorded: not to be mutagenic”, the induction of mutations [2] is reported as “did not induce mutations; also recorded: not to be mutagenic” and the chromosomal aberrations [3] is reported as “no aberrations were induced”.

With Tetradecylthioacetic acid [TTA] the lipid related parameters ([4]; animals given high dosages) was “lowered”, the tolerability ([4]; oral administration, dose levels up to 500 mg/kg/day) was “generally well tolerated” and the evidence of toxicity ([4]; oral, dose levels of 50 or 500 mg/day/kg) was “no evidence of toxicity”. For the same compound, the induction of mutations [1] was “did not induce mutations”, the induction of mutations [2] was “did not induce mutations” and the mutagenicity [5] was “not mutagenic”. For the same compound, the migratory capacity [6] was “severely inhibited”, the migratory capacity [7] was “severely inhibited” and the overall survival [8] was “substantially increased”.
